We go through 2 compounds from patent publication US20240066038A1, “WNT MODULATORS TO TREAT CENTRAL NERVOUS SYSTEM INJURIES” (MAYO FOUNDATION FOR MEDICAL EDUCATION AND RESEARCH, priority 2021, published 2024).

The subject of assay [1] is Wnt/β-catenin signaling. Nature of the assay: Axin2 expression by qPCR in hCMEC/D3 cerebral microvascular endothelial cells. Particulars: serum free medium, 24 h. The class given is cell-based, human. How it is done:
The expression level of Axin2, a specific target of Wnt/β-catenin signaling, was measured by qPCR. The results represented in the histograms are shown as the means±SE and are the average of 3 independent experiments. One-way ANOVA with post hoc Tukey-Kramer honest significant difference test. **, p<0.01.
Studies in past ten years have established that the Wnt/β-catenin pathway is a key pathway required not only for BBB formation but also for BBB integrity and function. Moreover, BBB breakdown following middle cerebral artery occlusion can be potently rescued in mice in which Wnt/β-catenin is specifically activated in brain endothelial cells. On the other hand, dysregulation of Wnt/β-catenin may limit remyelination of white matter lesions (WMLs) and render the BBB leaky.

Assay [2] deals with Wnt/β-catenin signaling. Nature of the assay: Total cellular β-catenin level by Western blotting in neuronal N2a cells. The class given is cell-based. Particulars: 24 h, Western blotting normalized to actin. The method, then: (A) Compound 1039 activates Wnt/β-catenin signaling in HEK293 cells. HEK293 cells were transfected with Super8XTOPFlash and 8-galactosidase vectors along with Wnt3A or control vector. After 24 h incubation, cells were treated with 1039 at the indicated concentrations for 24 h. The luciferase activity was then measured and normalized to the activity of the 8-galactosidase. All the values are the average of triplicate determinations with the SD values indicated by error bars. This experiment is a representative of 3 such experiments performed with similar data. (B, C) N2a cells were treated with Compound 1039 at the indicated concentrations for 24 h. (B) The levels of total cellular β-catenin were examined by Western blotting. (C) The intensity of the β-catenin bands was quantified and normalized to the corresponding signal for actin. The results represented in the histograms are shown as the mean±SD and are the average of 3 independent experiments.
Wnt/β-catenin signaling plays a critical role in neuronal survival, neurogenesis, synaptogenesis, neuronal plasticity and synaptic plasticity.
(A western blot detects proteins with antibodies after separation by electrophoresis.)

For `Nc1ccccc1NC(=O)c1ccc(C(=O)NCC2CCN2C2CCCC2)cn1` (centres unmarked) [Compound 1015], the “activation of Wnt/β-catenin signaling (Axin2 expression, qPCR)” value in assay [1] is given as “able to activate Wnt/β-catenin signaling”.

On to `Nc1ccccc1NC(=O)c1ccc(C(=O)NCC2CCCN2CCc2ccccc2)cn1` (centres unmarked) [Compound 1039], for which, in assay [2], the β-catenin level result was “enhances β-catenin level in a dose dependent manner”.
